Read-outs that look alike come from different tables or passages of the source.
Columns and labels:
Solubility in solvents = assay type: physicochemical
Text: (7) Solubility in solvents: Soluble in methanol, chloroform, and ethyl acetate; insoluble in water.

[1] = system: synthesis of intracellular triacylglycerols; experiment: Inhibitory activity on the synthesis of intracellular triacylglycerols, [14C] oleic acid incorporation in CHO-K1 cells; assay type: cell-based, Chinese hamster; conditions: [1-14C] oleic acid, 6 hours incubation, read-out: IC50, inhibition of formation of [14C] triacylglycerols
Procedure: The inhibitory activity on the synthesis of intracellular triacylglycerols of substance FKI-3864 according to the invention was tested in the manner described below.
Chinese hamster ovary cells (CHO-K1 cells) adjusted to 5.0×10^5 cells/mL with HAMs F12 medium (10% FBS, containing Penicillin/Streptomycin) were distributed on a 48-well plate in aliquots of 250 μL.
Then, after the cells were incubated at 37° C. for 12 hours in a 5% carbon dioxide gas incubator to adhere the cells, substance FKI-3864 (2.5 μL as a methanol solution) and [1−^14C] oleic acid (5 μL, 1.85 kBq, 1 nmol) were added, and incubation was continued for additional 6 hours.
The supernatant of the culture was removed, and after 0.1% SDS-Tris/HCl (pH 7.5, 120 μL) was added for lysis of the cells, neutral fat in the cells was extracted by the Bligh & Dyer method. After the extract was concentrated, it was spotted on a TLC (silica gel plate, Merck, 0.5 mm in thickness) and developed with a solvent of hexane/diethyl ether/acetic acid (70:30:1, v/v/v), and the quantity of isolated [^14C] triacylglycerols was determined with BAS 2000 (Fuji Film).
Using the same manner as in Test 1, the inhibitory activities on the synthesis of intracellular triacylglycerols of substances FKI-3864-1 and FKI-3864-2 were measured. […] In addition, the activities of mixtures in which substances FKI-3864-1 and FKI-3864-2 were mixed at different ratios are shown in Table 2.

Row | Solubility in solvents: methanol, chloroform, and ethyl acetate (Solubility in solvents) | Solubility in solvents: water (Solubility in solvents) | IC50 [1] | IC50 ([1]; Cricetulus griseus, CHO-K1, 6 h) | SMILES
1 | Soluble | insoluble | ≥ 12000 nM |  | CCCCCC(O)CC(O)CC1Cc2cc3cc(OC)c(-c4c(OC)cc5cc6c(c(O)c5c4O)C(=O)OC(CC(O)CC(O)CCCCC)C6)c(O)c3c(O)c2C(=O)O1 (single isomer, unassigned) [FKI-3864-1]
2 | Soluble | insoluble | 540 nM |  | CCCCCC(O)CC(O)CC1Cc2cc3cc(OC)c(-c4c(OC)cc5cc6c(c(O)c5c4O)C(=O)OC(CC(O)CC(O)CCCCC)C6)c(O)c3c(O)c2C(=O)O1 (single isomer, unassigned) [FKI-3864-2]
3 | Soluble | insoluble |  | 93 nM | CCCCCC(O)CC(O)CC1Cc2cc3cc(OC)c(-c4c(OC)cc5cc6c(c(O)c5c4O)C(=O)OC(CC(O)CC(O)CCCCC)C6)c(O)c3c(O)c2C(=O)O1 (stereo not drawn) [FKI-3864]

From patent US8378125B2, “Substance FKI-3864 and method for preparation thereof” (School Juridical Person Kitasato Institute, priority 2008, dated 2013)
